Data on 5 molecules can be found in patent US20250269036A1, “METHODS FOR ENHANCEMENT OF ENGINEERED CELL THERAPIES IN CANCER TREATMENT” (PURDUE RESEARCH FOUNDATION, priority 2021, published 2025).

Data set [1] has as its system M2-induced THP-1 macrophages. Nature of the data set: Secreted CCL18 and IL-1β in THP-1 macrophage supernatants by ELISA. Format: cell-based, human. Conditions: ELISA, low concentration range (0.1-10 nM). As to the method:
FIGS. 6A-6D show graphical data representative of various marker levels measured from M2-induced THP-1 macrophages treated with different concentrations of drugs for 48 hours (FIGS. 6A and 6B) or for 2 hours, then displaced with fresh medium and cultured for the remaining 46 hours (FIGS. 6C and 6D). In both cases, cell supernatants were collected and secreted CCL18 protein and IL-1β was detected by ELISA.
CCL18 and IL-1β were quantified in induced THP-1 cell supernatants using a human DuoSet ELISA Development System (R&D Systems Europe, Abingdon, UK; #DY394-05) and an IL-1 beta Human ELISA Kit (Thermo Fisher Scientific, Waltham, MA; #BMS224-2) as described by manufactures. BALF samples were analyzed for mouse IFN-γ using ELISA MAX™ Deluxe (Biolegend, San Diego, CA; #430804).
For orientation: An ELISA detects its analyte on a solid surface through an enzyme-linked reagent.

Data set [2] has as its system IL-4, IL-6 plus IL-13 stimulated THP-1 cells (M2-like macrophages). Nature of the data set: Reprogramming of M2-polarized THP-1 macrophages, marker mRNA by qPCR. Format: cell-based, human. The settings on record: 2 hours; for CCL18 relative expression / CD206 relative expression / IL-1β relative expression: different nM concentrations, qPCR. As to the method: THP-1 cells were initially selected as a model system because this human monocytic cell line is known to acquire an M2-like phenotype and produce significant quantities of anti-inflammatory cytokines upon stimulation with IL-4, IL-6 plus IL-13.
THP-1 cells were seeded into 96-well plates at a density of 60,000 cells/well. Cells were differentiated into unpolarized macrophages by 48 hours incubation with 200 nM PMA followed by 24 hours incubation in fresh RPMI medium. […] Cultures were maintained at 37° C. in a humidified 5% CO2 incubator.
Total RNA was isolated from 1×10^5-2×10^5 macrophages using a Quick-RNATM MicroPrep kit (Zymo Research, Irvine, CA) according to the manufacturer-recommended protocol. […] IL-6, CXCL10, IFNα, IFN-γ and CD86 were used as markers for an M1 phenotype, while CCL18, CD206, CD163 and Arg1 were employed as markers for the M2 phenotype. IL-1β, PDGFβ, MMP9 and TIMP 3 were measured as indicators of an anti-inflammatory phenotype. IRAK-4 was used as an indicator of TLR7 stimulation. To control for specificity of the amplification products, a melting curve analysis was performed. […] Each sample was analyzed independently in triplicate for each marker.
Primarily, human monocytic (THP-1) cells were induced to the M2-like phenotype using the methods and materials previously described. In particular, THP-1 cells were seeded into 96-well plates at a density of 60,000 cells/well. Cells were differentiated into unpolarized macrophages by 48h incubation with 200 nM PMA followed by 24 hours incubation in fresh RPMI medium. The resulting macrophages were polarized to an M2-like phenotype by incubation with 20 ng/ml IL-4, 20 ng/ml IL-13, and 5 ng/mL IL-6 for 48h. Cultures were maintained at 37° C. in a humidified 5% CO2 incubator.
In addition to the nonconjugated TLR7 agonist, conjugated compounds of the present disclosure were likewise evaluated. […] The cells were subsequently harvested for gene analysis by qPCR and the relative expression of CCL18 (FIG. 14A), CD206 (FIG. 14B), and IL-1β (FIG. 14C) analyzed.
(In general: Real-time PCR tracks product formation cycle by cycle.)

In the next data set the test system is healthy mice. In words: Plasma cytokine levels in healthy mice after tail vein injection. Format: in vivo. Conditions: healthy mice, tail vein, 10 nmol, 1 hour or 1.5 hours after treatment. As for the experimental part: (FIGS. 20A-C) Measurement of plasma IL-6 (FIG. 20A), IFNα (FIG. 20B) and TNFα (FIG. 20C) (n=3). (FIGS. 20D-F). The effect of drug concentration on plasma levels of IL-6 (FIG. 20D), IFNα (FIG. 20E), and TNFα (FIG. 20F) was determined at 1.5h, 1h, or 1h after treatment, respectively (n=2) (FIG. 20G).
(FIGS. 36C and 36D). The effect of drug on plasma levels of IL-6 (FIG. 36C) and TNFα (FIG. 36D) was determined at 1 hour or 1.5 hours after treatment.

The test system of data set [3] is FRβ-expressing macrophages. In words: In vivo folate imaging of organs with OTL38. On the set-up: species or system C57BL/6 mice. As to the method:
(§1) To evaluate if anti-inflammatory lung macrophages in these mice can be specifically targeted with folate-linked drugs, 10 days after the instillation, 10 nmol (for in vivo imaging) or 100 nmol (for in vivo labeling) of a folate-linked, near infrared fluorescent dye (OTL38) with or without 200-fold excess of FA-glucosamine (a competitor of OTL38) was injected into the tail veins of BM-treated mice and the dye uptake in the major organs was evaluated.
Finally, for the in vivo folate imaging studies, major organs (heart, lung, spleen, liver, small intestine, large intestine, and kidney) were resected and imaged using an AMI live imager (Spectral Instruments Imaging, Tucson, AZ). For in vivo folate receptor labeling studies, lungs of the mice were harvested immediately following euthanasia, digested with a lung dissociation kit (Miltenyi Biotec, Bergisch Gladbach, DE; #130-098-427) as described by gentleMACS Octo Dissociator with Heathers (Miltenyi Biotec, Bergisch Gladbach, DE; #130-096-427) as described by manual and filtered through a 70 μm cell strainer (Miltenyi Biotec, Bergisch Gladbach, DE; #130-098-462). Cells collected in the filtrate were depleted of erythrocytes by […] lysis, washed 2x in cold PBS and labeled for 30 min on ice with antibodies to desired macrophage markers (FITC-CD11b, Biolegend, San Diego, CA; #101205; FE-F4/80, Biolegend, San Diego, CA; #123109). Labeled macrophages were then washed twice in PBS, stained with 7AAD (viability stain) for 15 min and analyzed by flow cytometry using BD Accuri C6 Software (BD Biosciences, San Jose, CA).
FIGS. 7C and 7D show FRβ IHC staining of human IPF lung tissue (FIG. 7C) and healthy human lung tissue (FIG. 7D). […] After 2 hours, mice were sacrificed prior to analysis. […] For in vivo folate receptor labeling studies, lungs of the mice were harvested immediately following euthanasia, digested and then labeled with antibodies to desired macrophages markers (FITC-CD11b, PE-F4/80) and 7AAD (live/dead staining) and analyzed by flow cytometry.

Data set [4] has as its system FRβ positive macrophages in the inflamed lung. Nature of the data set: In vivo folate receptor labeling of lung macrophages, flow cytometry. Also noted: species or system C57BL/6 mice. As to the method: as §1
Finally, for the in vivo folate imaging studies, major organs (heart, lung, spleen, liver, small intestine, large intestine, and kidney) were resected and imaged using an AMI live imager (Spectral Instruments Imaging, Tucson, AZ). […] Labeled macrophages were then washed twice in PBS, stained with 7AAD (viability stain) for 15 min and analyzed by flow cytometry using BD Accuri C6 Software (BD Biosciences, San Jose, CA).
FIGS. 7C and 7D show FRβ IHC staining of human IPF lung tissue (FIG. 7C) and healthy human lung tissue (FIG. 7D). […] For in vivo folate receptor labeling studies, lungs of the mice were harvested immediately following euthanasia, digested and then labeled with antibodies to desired macrophages markers (FITC-CD11b, PE-F4/80) and 7AAD (live/dead staining) and analyzed by flow cytometry. […]
On the technique in general: In flow cytometry, cells or beads pass a laser one at a time.

Entries after “also recorded” stand apart in the source; their conditions may differ.

Consider `Nc1nc(C(F)(F)F)cc2c1[nH]c(=O)n2Cc1ccc(NCCN2CCCC(CO)C2)nc1` (stereo not shown) [Compound 3A], for which the “secretion of CCL18 protein” value in data set [1] is recorded as “downregulated”.

Regarding `Nc1nc2ncc(CNc3ccc(C(=O)NC(CCC(=O)N[C@@H](CSSCCOC(=O)OCC4CCCN(CCNc5ccc(Cn6c(=O)[nH]c7c(N)nc(C(F)(F)F)cc76)cn5)C4)C(=O)O)C(=O)O)cc3)nc2c(=O)[nH]1` (stereo partly shown) [Compound 3B], in data set [2], the CCL18 relative expression entry is “reduced”, the CD206 relative expression result is given as “reduced” and the IL-1β relative expression result is listed as “reduced”. Also, the “secretion of CCL18 protein” value in data set [1] is “downregulated”.

Take `Nc1nc2ncc(CNc3ccc(C(=O)N[C@@H](CCC(=O)NCCOCCOCCOCCOCC4CCCN(CCNc5ccc(Cn6c(=O)[nH]c7c(N)nc(C(F)(F)F)cc76)cn5)C4)C(=O)O)cc3)nc2c(=O)[nH]1` (stereo partly shown) [Compound 3D]: the “effectiveness in reducing M2 markers relative to the other compounds” value in data set [2] (CCL18, CD206, IL-1β) was “most effective”. Also, in data set [2], the CCL18 relative expression entry is given as “reduced”, the CD206 relative expression entry is recorded as “reduced” and the IL-1β relative expression result is given as “reduced”. Moreover, the “secretion of CCL18 protein” value in data set [1] is listed as “downregulated”.

For the molecule `CCOCc1nc2c(N)nc3ccccc3c2n1CC(C)(C)O` [Compound A, reference compound], the “systemic cytokine release (plasma IL-6, TNFα)” value in the data set with healthy mice is “stimulated systemic cytokine release”.

Consider OTL38, for which the “lung accumulation with competitor” value in data set [3] (BM-treated mice, simultaneous 200-fold excess folate-glucosamine) is listed as “nearly quantitative blockade of lung accumulation”. The “OTL38 fluorescence in organs of healthy mice” value in data set [3] (tail vein, 10 nmol, 2 hours) is reported as “only observed in the kidneys”. Further, in data set [3] (tail vein, 10 nmol, day 10 post BM, 2 hours), the “accumulation in lungs of BM-treated mice” value is listed as “in the lungs of BM-treated but not healthy mice; also recorded: pronounced accumulation in the fibrotic lungs”. Also, the “folate-dye retention in macrophage-like cells with competitor” value in data set [4] (100 nmol plus 200-fold excess folate-glucosamine) is recorded as “blocked essentially all folate-dye retention”. Also, the “macrophage-like cells showing folate-targeted dye retention” value in data set [4] (fibrotic mice, 100 nmol, tail vein) is “about 22%”.
